Tested on: HA-TDP expressing cells
Assay: Suppression of insoluble TDP aggregate formation by candidate compounds (Western blot with anti-409/410 antibody, densitometer)
Type: cell-based, human
Settings: 20 μM, ppt fraction after three days, compared with DMSO control as 100%; for suppressing effect against aggregate formation: added 6 hours after introduction of insoluble fraction from the brain of patient
Experimental: Two transfectants of (1) SH-SY5Y cells expressing human α-synuclein (hereinafter referred to as “αS expressing cells” for transfectants and “αS” for the human α-synuclein, respectively) and (2) SH-SY5Y cells expressing HA-tagged TAR DNA binding protein (hereinafter referred to as “HA-TDP expressing cells” for the SH-SY5Y cells and an “HA-TDP” HA-tagged TAR DNA binding protein, respectively) were prepared. In brief, a construct in which a polynucleotide encoding αS or HA-TDP was inserted into pcDNA3 vector were prepared (Ueda. K et al., Proc. Natl. Acad. Sci. U.S.A. 90: 11282 (1993), Ou. S H et al., J Virol. 3584: 394 (1995)). Mixture of the construct (1 μg), X-tremeGENE 9 DNA transfection reagent (Roche Diagnostics K.K.) (3 μL) and the OptiMEM (100 μL) was added to 30% to 50% confluent of the SH-SY5Y cells and incubated over night, then used in the following step of introduction of insoluble fraction.
An amount of sample for introduction per one well of the 6-well plate was added to the cell culture medium of one well, then the cultured cells was incubated for 6 hours. After the incubation, the medium was replaced with a flesh cell culture medium (2 mL) and the cultured cells were incubated for 3 days. Then, the cultured cells were used to perform the analysis by Western blotting and immunocytochemistry. If the cultured cells were not used immediately, the cultured cells were stored at −20° C.
The precipitate obtained in the preparation of TX fraction was suspended in a cell lysis buffer containing 1% N-sodium lauroyl sarcosinate, and incubated at 37° C. for 30 min. After ultrasonication treatment using VP-5S type device (Titech Corporation), the supernatant and precipitate were separated by ultracentrifugation (290,000×g, 20 min, 4° C.), the supernatant was used as Tris buffer soluble fraction containing N-sodium lauroyl sarcosinate (hereinafter referred to as “Sar fraction”). And also, the precipitate was used as insoluble fraction (hereinafter referred to as “ppt fraction”).
TS, TX, Sar and ppt fractions were used in the Western blotting by standard method well known to those skilled in the art. In brief, each fraction was separated by electrophoresis with 13.5% SDS-polyacrylamide gel, respectively. The separated proteins were transferred to a PVDF membrane, reacted with the following primary and secondary antibodies, and detected with an ECL Plus Western Blotting Detection System (GE Healthcare Japan Corporation) and an ImageQuant™ LAS 4000 mini (GE Healthcare Japan Corporation).
The harvest of samples, preparation of insoluble fractions from the brain samples, preparation of sample for introduction including the insoluble fractions, cell culturing, preparation of transfectants, introduction of insoluble fractions into the cultured cells and Western blotting were performed in accordance with the procedures similar to those in the example 3. In this example, the candidate compounds of therapeutic agent of neurodegenerative disease were added at final concentration of 20 μM at 6 hours after introduction of insoluble fraction originated from the brain of patient into HA-TDP expressing cells. […] In three days after the introduction of insoluble fraction from the brain of patient, the ppt fraction of HA-TDP expressing cells was recovered and used in Western blotting, and the amounts of the insoluble fractions were quantified with a densitometer. […]

| SMILES | suppressing effect against aggregate formation | aggregate formation suppressed |
| --- | --- | --- |
| O=C(c1cc(O)c(O)c(O)c1)c1ccc(O)c(O)c1O [exifone] | did not have a suppressing effect | – |
| O=c1c(O)c(-c2ccc(O)c(O)c2)oc2c(O)c(O)cc(O)c12 [gossypetin] | had the suppressing effect | approximately 40% |
| O=C(O[C@@H]1Cc2c(O)cc(O)cc2O[C@@H]1c1ccc(O)c(O)c1)c1cc(O)c(O)c(O)c1 [epicatechin gallate, (−)-epicatechin gallate] | had the suppressing effect | – |
| O=c1c(O)c(-c2cc(O)c(O)c(O)c2)oc2cc(O)cc(O)c12 [myricetin] | had the suppressing effect | – |

From patent US9624279B2, “Method for producing insoluble aggregate of neurodegenerative-disease-related protein” (TOKYO METROPOLITAN INSTITUTE OF MEDICAL SCIENCE, priority 2011, dated 2017)
